For 4 compounds, IC50, MIC and Activity results are on record in ChEMBL document CHEMBL1158905, “Two New Bioactive Cyclic Peroxides from the Marine Sponge Plakortis angulospiculatus” (J Nat Prod, 1990).

One assay concerns P388. Briefly: Cytotoxicity against mouse P388 cells. Type of assay: functional, cell-based.
The next assay relates to Candida albicans. Nature of the assay: Antimicrobial activity against Candida albicans ATCC 44506 by broth microdilution method. The format is functional. In general terms: Dilution methods test growth across graded concentrations, often in twofold steps.
A further assay has as its system Aspergillus nidulans. Nature of the assay: Antimicrobial activity against Aspergillus nidulans by at 20 ug/disk by disk diffusion method. Type of assay: functional, organism-based.
The subject of the next assay is Bacillus subtilis. Nature of the assay: Antimicrobial activity against Bacillus subtilis by at 20 ug/disk by disk diffusion method. Type of assay: functional, organism-based. On the technique in general: Agar diffusion results depend on both activity and mobility in agar.
The subject of another assay is Escherichia coli. Nature of the assay: Antimicrobial activity against Escherichia coli by at 20 ug/disk by disk diffusion method. The format is functional, organism-based.

≈ marks a conversion by molar mass, not a printed value. Calls of active or inactive are those of the source. The calls are words filed in the database; no cut-off is given here. A value given as a limit tells only on which side of the number the result lay.

A word on the IC50: it is the point on the concentration scale where inhibition reaches its midpoint. A lower IC50 goes with inhibition by little substance. The term MIC denotes the least concentration at which growth counts as inhibited. Higher therefore signals weaker potency. In turn, `CCCCC(CC)CC(C)CC1(CC)C=C(CC)C(CC(=O)OC)OO1` (stereo not given) gave an IC50 in the assay on P388 of 0.2 µg/mL (≈ 0.543 µM). Moreover, in the assay with Candida albicans, the MIC was over 50 µg/mL. Also, the outcome with Aspergillus nidulans, in the assay on Bacillus subtilis and in the assay on Escherichia coli was inactive.

Compound `CC/C=C/C(CC)CC(C)CC1(CC)C=C(CC)C(CC(=O)O)OO1` (stereo not given) gave an IC50 in the assay on P388 of 0.3 µg/mL (≈ 0.851 µM). The compound also displayed an MIC against Candida albicans of 1.6 µg/mL (≈ 4.54 µM). Further, the result with Aspergillus nidulans and in the assay with Bacillus subtilis was Active. Further, the result with Escherichia coli was inactive.

In turn, `CC/C=C/C(CC)CC(C)CC1(CC)C=C(CC)C(CC(=O)OC)OO1` (stereo not given) showed an IC50 in the assay on P388 of 0.9 µg/mL (≈ 2.46 µM). In addition, the MIC against Candida albicans was over 50 µg/mL. Further, the result with Aspergillus nidulans, in the assay with Bacillus subtilis and in the assay with Escherichia coli was inactive.

As for `CCCCC(CC)CC(C)CC1(CC)C=C(CC)C(CC(=O)O)OO1` (stereo not given), the IC50 in the assay on P388 came to 0.2 µg/mL (≈ 0.564 µM). The same compound yielded an MIC against Candida albicans of 1.6 µg/mL (≈ 4.51 µM). The outcome with Aspergillus nidulans and in the assay on Bacillus subtilis was Active. The result in the assay with Escherichia coli was inactive.
